# Source: patent US20060004044A1, “3-glyoxylamideindoles for treating cancer” (Synta Pharmaceuticals Corp., priority 2001, published 2006)
# Experiments:
# [1] = system: MES-SA/DX5 multi-drug resistant human uterine sarcoma cell line; test: In vitro anti-cancer activity against MDR cell line MES-SA/DX5; format: cell-based; settings: for IC50: MES-SA/DX5 cells, 72 hours, MTS
# Description: (§1) The cell lines were maintained in RPM11640(GIBCO) supplemented with 10% FCS, 100 units/ml penicillin, 100 ug/ml streptomycin, and 2 mM L-glutamine. The cells were split every third day and diluted to a concentration of 2×10^5 cells/ml one day before experiment. All experiments were performed on exponentially growing cell culture. Cell densities were 2.5×10^4 cells/ml in all experiment.
# (§2) A stock solution of Compound (1) was prepared by dissolving the compound at a concentration of 1 mM in 100% DMSO. Final concentrations were obtained by diluting the stock solution directly into the tissue culture medium. Cells were incubated with varying concentrations of compounds for 72 hours and the IC50 was determined by MTS (i.e. […]) assay. IC50 stands for the concentration of compound required to inhibit 50% tumor cell growth.
# (§3) In vitro activity was determined in two MDR (Multi Drug Resistant) human cancer cell lines. HL-60/TX1000 was isolated in vitro by subculturing HL-60 in progressively higher concentration of Taxol. HL-60/TX1000 cells over-express mdr-1 mRNA and p-glycoprotein, as determined by western blot and immunofluorescence labeling with antiPGP antibodies. The cell is cross-resistant to Taxol, Vincristine, Adriamycin, Etoposide and Doxorubicin. MES-SA/Dx5 was established in the presence of increasing concentrations of Doxorubicin. […] MES-SA/Dx5 was purchased from ATCC.
# (§4) The procedure for culturing the cells and assaying cancer cell growth inhibition were as described in Example 3.
# (§5) The protocol described in Example 3 was used to assay inhibition by Compounds (2)-(10) on the growth of the multi-drug resistant cell lines MES-SA/DX5 and HL60/TX1000.
# [2] = system: HL-60/TX1000 multi-drug resistant human myeloid leukemia cell line; test: In vitro anti-cancer activity against MDR cell line HL-60/TX1000; format: cell-based; settings: for IC50: Homo sapiens, HL-60/TX1000 cells, 72 hours, MTS
# Description: as §1, §2, §3, §4, §5
# [3] = system: MDA435 human breast tumor; test: Tumor growth inhibition assay, human breast tumor (MDA435) xenograft model, oral treatment; format: in vivo, nude mice; settings: for body weight change / loss: nude mice with MDA435 tumors, oral, Compound (5) 25 mg/kg, Compound (3) 50 mg/kg; for tumor growth inhibition (FIG. 2): nude mice, 3 times a week for 3 weeks
# H2 (human leukemia) = test: In vitro anti-cancer activity, MTS assay, H2; format: cell-based; settings: H2 cells, 72 hours
# Description: (§6) The in vitro activity of the compounds was determined in the following […] human cancer cell lines. MDA435 (human breast cancer), HL-60 (human myeloid leukemia), DU-145 (human prostate cancer), MES-SA (human uterine sarcoma), H2 (human leukemia) were obtained from ATCC (American Type of Culture Collection).
# as §1, §2
# [4] = system: MDA435 (human breast cancer); test: In vitro anti-cancer activity, MTS assay, MDA435; format: cell-based; settings: MDA-435 cells, 72 hours
# Description: as §6, §1, §2
# [5] = system: MES-SA (human uterine sarcoma); test: In vitro anti-cancer activity, MTS assay, MES-SA; format: cell-based; settings: MES-SA cells, 72 hours
# Description: as §6, §1, §2
# [6] = system: DU-145 (human prostate cancer); test: In vitro anti-cancer activity, MTS assay, DU-145; format: cell-based; settings: DU-145 cells, 72 hours
# Description: as §6, §1, §2
# MCF-7 human breast tumor = test: Tumor growth inhibition assay, human breast tumor (MCF-7) xenograft model; format: in vivo, nude mice (CD-1 nu/nu); settings: nude mice; for tumor growth inhibition (FIG. 1): 3 times a week for 3 weeks
# [7] = system: HL-60 (human myeloid leukemia); test: In vitro anti-cancer activity, MTS assay, HL-60; format: cell-based; settings: HL-60 cells, 72 hours
# Description: as §6, §1, §2
structure (smiles),measurement,setting,value
N#Cc1ccc(Cn2cc(C(=O)C(=O)Nc3ccncc3)c3ccccc32)cc1 [(9)],IC50,[1]; Homo sapiens,50 nM
same,IC50,[2]; HL60/TX1000,50 nM
"CC[C@]1(O)C[C@H]2CN(CCc3c([nH]c4ccccc34)[C@@](C(=O)OC)(c3cc4c(cc3OC)N(C=O)[C@H]3[C@@](O)(C(=O)OC)[C@H](OC(C)=O)[C@]5(CC)C=CCN6CC[C@]43[C@@H]65)C2)C1 [Vincristine, reference compound]",IC50,"[1]; Homo sapiens, MES-SA/Dx5, 72 h",1000 to 5000 nM
same,IC50,[1],1000 nM
Cc1cc(NC(=O)C(=O)c2cn(Cc3ccc(C#N)cc3)c3ccccc23)sn1 [Compound (2)],IC50,[1]; Homo sapiens,5 nM
same,IC50,[2]; HL60/TX1000,5 nM
NC(=O)c1ccc(NC(=O)C(=O)c2cn(Cc3ccc(Cl)cc3)c3ccccc23)cc1 [Compound (3)],IC50,[1]; Homo sapiens,50 nM
same,body weight change / loss,[3],without showing significant body weight loss
same,tumor growth inhibition (FIG. 2),[3]; 50 mg/kg orally by gavage,significantly inhibit tumor growth
same,IC50,[2]; HL60/TX1000,50 nM
CN(c1ccccc1)n1cc(C(=O)C(=O)Nc2ccc3ncccc3c2)c2ccccc21 [(8)],IC50,"[1]; Homo sapiens, MES-SA/Dx5, 72 h",100 nM
same,IC50,"[2]; HL60/TX1000, 72 h",100 nM
O=C(Nc1ccc2ncccc2c1)C(=O)c1cn(Cc2ccc(Cl)cc2)c2ccccc12 [Compound (5)],IC50,[1]; Homo sapiens,50 nM
same,body weight change / loss,[3],without showing significant body weight loss
same,tumor growth inhibition (FIG. 2),[3]; 25 mg/kg orally by gavage,significantly inhibit tumor growth
same,IC50,[2]; HL60/TX1000,50 nM
NC(=O)c1ccc(NC(=O)C(=O)c2cn(Cc3ccc(Cl)cc3)c3ccccc23)nc1 [(4)],IC50,[1]; Homo sapiens,50 nM
same,IC50,[2]; HL60/TX1000,50 nM
CSc1nnc(NC(=O)C(=O)c2cn(Cc3ccc(Cl)cc3)c3ccccc23)[nH]1 [(6)],IC50,[1]; Homo sapiens,50 nM
same,IC50,[2]; HL60/TX1000,50 nM
O=C(Nc1ccon1)C(=O)c1cn(Cc2ccc(Cl)cc2)c2ccccc12 [(7)],IC50,[1]; Homo sapiens,80 nM
same,IC50,[2]; HL60/TX1000,50 nM
Cc1cc(NC(=O)C(=O)c2cn(Cc3ccc(Cl)cc3)c3ccccc23)no1 [(10)],IC50,[1]; Homo sapiens,50 nM
same,IC50,[2]; HL60/TX1000,50 nM
"Cc1cc(NC(=O)C(=O)c2cn(Cc3ccc(Cl)cc3)c3ccccc23)sn1 [Compound (1), 2-(1-(4-Chloro-benzyl)-1-indol-3-yl)-N-(3-methyl-isothiazol-5-yl)-2-oxo-acetamide]",IC50,[1]; Homo sapiens,10 nM
same,anti-cancer activity against MDR cancer cell lines (in words),[1]; MES-SA/DX5,high anti-cancer activity
same,IC50,H2 (human leukemia),5 nM
same,IC50,[4],5 nM
same,anti-cancer activity against MDR cancer cell lines (in words),[2]; HL-60/TX1000,high anti-cancer activity
same,IC50,[2]; HL60/TX1000,10 nM
same,IC50,[5],5 nM
same,IC50,[6],5 nM
same,tumor growth inhibition (FIG. 1),MCF-7 human breast tumor; 7.5 mg/kg intravenously,significantly inhibits tumor growth
same,tumor growth inhibition (FIG. 1),MCF-7 human breast tumor; 10 mg/kg intravenously,significantly inhibits tumor growth
same,toxicity,MCF-7 human breast tumor; 7.5 and 10 mg/kg,acceptable toxicity
same,reduction of volume of tumors,"MCF-7 human breast tumor; intravenously every second day, 10 mg/kg",greater than 50%
same,IC50,[7],5 nM
